Assay [1] relates to Zika virus. The assay can be described thus: Functional CPE-based assay to measure dose dependent changes in antiviral-drug inhibitory efficacy against Zika virus MR766 in Vero E6 miRFP670 cells (cotreated with P-gp inhibitor, CP100356). Cells are treated with antiviral candidates that are serially diluted. EC50 is reported via analysis of MTS assay as a readout of CPE. The assay has been performed by KU Leuven. The settings on record: Zika virus. In kind it is organism-based, Chlorocebus sabaeus, Vero C1008. (Formazan colour is commonly taken as a measure of viable cells.)

The test system of assay [2] is dengue virus type 2. The assay can be described thus: Functional assay to measure dose dependent changes in antiviral-drug inhibitory efficacy against Dengue virus type 2 New Guinea C in Vero E6 miRFP670 cells (cotreated with P-gp inhibitor, CP100356). Cells are treated with antiviral candidates that are serially diluted, following infection, cells are fixed. EC50 is reported via analysis of fluorescence intensity using high-content imager. The …. It is filed as organism-based, Chlorocebus sabaeus, Vero C1008. To be noted: Dengue virus; for EC90: P-gp concentration 500 nM, P-gp inhibitor CP100356.

Molecules are shown by their SMILES.

In the case of `O=C(Nc1cc2c(cc1Br)CNC2)c1cc(Cl)cc2[nH]ncc12`, the figures for the EC50 in assay [1] (Vero C1008) and in assay [2] (Vero C1008) were 1.53 µM and above 12.5 µM, respectively. The EC90 in assay [1] (Vero C1008, Baseline response 0 %, EC90 CI (lower) 0.641 uM, EC90 CI (upper) 7.527 uM, Hill slope 6.115, Maximum measured 127.201 %, Maximum response 100 %, Minimum measured 6.803 %, P-gp concentration 500 nM, R squared 0.89, P-gp inhibitor CP100356) is 2.2 µM; in assay [2] (Vero C1008, Baseline response 0 %, Hill slope -0.294, Maximum measured 95.105 %, Maximum response 100 %, Minimum measured 44.86 %, R squared 0.086) it was above 12.5 µM.
In the case of `O=C(Nc1ccc2c(c1)CNC2)c1cc(F)cc(-c2cn[nH]c2)c1`, the EC50 is above 50 µM in assay [1] (Vero C1008) and 1.11 µM in assay [2] (Vero C1008). Besides, the EC90 in assay [1] (Vero C1008, Baseline response 0 %, Hill slope 1.1, Maximum measured 49.9 %, Maximum response 100 %, Minimum measured 5.357 %, P-gp concentration 500 nM, R squared 0.912, P-gp inhibitor CP100356) is above 50 µM; in assay [2] (Vero C1008, Baseline response 0 %, EC90 CI (lower) 0.042 uM, EC90 CI (upper) 0.221 uM, Hill slope -0.898, Maximum measured 65.167 %, Maximum response 100 %, Minimum measured 5.409 %, R squared 0.901), 12.8 µM.
Turning to `O=C(Nc1cc2c(c(-c3c[nH]c(=O)c(F)c3)c1)CNC2)c1cc(F)cc2[nH]ncc12`, the EC50 in assay [1] (Vero C1008) was above 50 µM; in assay [2] (Vero C1008), above 25 µM. Further, the EC90 in assay [1] (Vero C1008, Baseline response 0 %, Hill slope 0.515, Maximum measured 9.878 %, Maximum response 100 %, Minimum measured 0.944 %, P-gp concentration 500 nM, R squared 0.362, P-gp inhibitor CP100356) is above 50 µM; in assay [2] (Vero C1008, Maximum measured 138.883 %, Minimum measured 79.511 %), above 25 µM.
With `O=C(Nc1ccc2c(c1)CN[C@H]2C[C@H](O)CO)c1cc(F)cc2[nH]ncc12`, the EC50 in assay [1] (Vero C1008) and in assay [2] (Vero C1008) was above 50 µM each time. Further, the EC90 in assay [1] (Vero C1008, Maximum measured 5.346 %, Minimum measured 2.665 %, P-gp concentration 500 nM, P-gp inhibitor CP100356) was above 50 µM; in assay [2] (Vero C1008, Baseline response 0 %, Hill slope 0.494, Maximum measured 181.349 %, Maximum response 100 %, Minimum measured 67.92 %, R squared 0.043) it was above 50 µM.
As to `CO[C@H]1C[C@H](n2ncc3c(C(=O)Nc4ccc5c(c4)CNC5)cc(Cl)cc32)C1`, the EC50 in assay [1] (Vero C1008) was 3.1 µM; in assay [2] (Vero C1008), above 12.5 µM. Further, the EC90 in assay [1] (Vero C1008) is 3.53 µM; in assay [2] (Vero C1008, Baseline response 0 %, Hill slope 0.569, Maximum measured 146.378 %, Maximum response 100 %, Minimum measured 74.589 %, R squared 0.043), above 12.5 µM.
As for `CCCn1cc2c(C(=O)Nc3ccc4c(c3)CNC4)cc(Cl)cc2n1`, the EC50 in assay [1] (Vero C1008) was 3.04 µM; in assay [2] (Vero C1008) it was above 3.12 µM. For the same compound, the EC90 in assay [1] (Vero C1008) was 3.55 µM; in assay [2] (Vero C1008, Baseline response 0 %, Hill slope 1.203, Maximum measured 92.059 %, Maximum response 100 %, Minimum measured 55.102 %, R squared 0.785) it was above 3.12 µM.
Take `O=C(Nc1ccc2c(c1)CNC2)c1cccc2c1[C@]1(CCNC1)C(=O)N2`: the EC50 in assay [1] (Vero C1008) was above 50 µM; in assay [2] (Vero C1008), above 12.5 µM. The EC90 is above 50 µM in assay [1] (Vero C1008, Baseline response 0 %, Hill slope 1.1, Maximum measured 3.95 %, Maximum response 100 %, Minimum measured -2.689 %, P-gp concentration 500 nM, R squared 0.205, P-gp inhibitor CP100356) and above 12.5 µM in assay [2] (Vero C1008, Maximum measured 172.695 %, Minimum measured 97.519 %).
For `Cc1ncc(-c2cc(F)cc(C(=O)Nc3ccc4c(c3)CNC4)c2)s1`, the EC50 is 3.77 µM in assay [1] (Vero C1008) and above 25 µM in assay [2] (Vero C1008). Besides, the EC90 in assay [1] (Vero C1008, Baseline response 0 %, EC90 CI (lower) 3.392 uM, EC90 CI (upper) 11.052 uM, Hill slope 4.52, Maximum measured 126.226 %, Maximum response 100 %, Minimum measured 6.868 %, P-gp concentration 500 nM, R squared 0.912, P-gp inhibitor CP100356) was 6.12 µM; in assay [2] (Vero C1008, Maximum measured 125.186 %, Minimum measured 53.808 %) it was above 25 µM.
For the compound `O=C(NCC(F)F)[C@H](Nc1ccc2c(c1)CNC2)c1cc(F)cc2[nH]ncc12`, the EC50 in assay [1] (Vero C1008) was 17.9 µM; in assay [2] (Vero C1008), above 50 µM. The EC90 is above 50 µM in assay [1] (Vero C1008, Baseline response 0 %, Hill slope 1.433, Maximum measured 86.437 %, Maximum response 100 %, Minimum measured 5.781 %, P-gp concentration 500 nM, R squared 0.963, P-gp inhibitor CP100356) and above 50 µM in assay [2] (Vero C1008, Maximum measured 213.694 %, Minimum measured 101.734 %).
For the compound `O=C(Nc1ccc2c(c1)CNC2)c1cc(F)cc(-c2c[nH]c(=O)c(F)c2)c1`, the results for the EC50 in assay [1] (Vero C1008) and in assay [2] (Vero C1008) were above 50 µM and above 25 µM, respectively. The EC90 in assay [1] (Vero C1008, Maximum measured 1.475 %, Minimum measured -1.93 %, P-gp concentration 500 nM, P-gp inhibitor CP100356) was above 50 µM; in assay [2] (Vero C1008, Baseline response 0 %, Hill slope 1.228, Maximum measured 158.309 %, Maximum response 100 %, Minimum measured 64.759 %, R squared 0.303), above 25 µM.
With `C=Cc1cc2c(cc1NC(=O)c1cc(F)cc3[nH]ncc13)CNC2`, the EC50 is 5.17 µM in assay [1] (Vero C1008) and above 6.25 µM in assay [2] (Vero C1008). The EC90 was 16 µM in assay [1] (Vero C1008, Baseline response 0 %, EC90 CI (lower) 8.54 uM, EC90 CI (upper) 30.093 uM, Hill slope 1.942, Maximum measured 120.806 %, Maximum response 100 %, Minimum measured 10.445 %, P-gp concentration 500 nM, R squared 0.918, P-gp inhibitor CP100356) and above 6.25 µM in assay [2] (Vero C1008, Maximum measured 131.207 %, Minimum measured 113.262 %).
Consider `O=C(Nc1cc2c(cc1C1CC1)CNC2)c1cc(F)cc2[nH]ncc12`, for which the EC50 in assay [1] (Vero C1008) is 7.12 µM; in assay [2] (Vero C1008) it was above 3.12 µM. Also, the 90% effect concentration (EC90) in assay [1] (Vero C1008, Baseline response 0 %, EC90 CI (lower) 6.176 uM, EC90 CI (upper) 30.178 uM, Hill slope 3.376, Maximum measured 139.956 %, Maximum response 100 %, Minimum measured 0.398 %, P-gp concentration 500 nM, R squared 0.839, P-gp inhibitor CP100356) was 13.7 µM; in assay [2] (Vero C1008, Maximum measured 158.599 %, Minimum measured 73.357 %) it was above 3.12 µM.
On to `O=C(Nc1ccc2c(c1)CNC2)c1cc(Cl)cc2c1cnn2C[C@H]1CCCO1`, for which the concentration for a half-maximal effect (EC50) in assay [1] (Vero C1008) is 6.36 µM; in assay [2] (Vero C1008), above 50 µM. The 90% effect concentration (EC90) was 6.75 µM in assay [1] (Vero C1008, Baseline response 0 %, Hill slope 36.566, Maximum measured 122.907 %, Maximum response 100 %, Minimum measured 2.24 %, P-gp concentration 500 nM, R squared 0.938, P-gp inhibitor CP100356) and above 50 µM in assay [2] (Vero C1008, Baseline response 0 %, Hill slope 0.931, Maximum measured 200.765 %, Maximum response 100 %, Minimum measured 63.333 %, R squared 0.208).
Turning to `O=C(Nc1ccc2c(c1)CNC2)c1cc(Cl)cc2[nH]c(-c3cc(C4CC4)[nH]n3)nc12`, the concentration giving a half-maximal response (EC50) in assay [1] (Vero C1008) was above 0.781 µM; in assay [2] (Vero C1008) it was above 3.12 µM. In addition, the EC90 in assay [1] (Vero C1008, Baseline response 0 %, Hill slope 2.134, Maximum measured 7.792 %, Maximum response 100 %, Minimum measured 1.889 %, P-gp concentration 500 nM, R squared 0.797, P-gp inhibitor CP100356) was above 0.781 µM; in assay [2] (Vero C1008, Maximum measured 213.616 %, Minimum measured 78.099 %) it was above 3.12 µM.
`C=CC[C@H]1NCc2cc(NC(=O)c3cc(F)cc4c3CC(=O)N4)ccc21`: the EC50 in assay [1] (Vero C1008) is 8.05 µM; in assay [2] (Vero C1008), above 50 µM. In addition, the EC90 was 19.4 µM in assay [1] (Vero C1008) and above 50 µM in assay [2] (Vero C1008, Baseline response 0 %, Hill slope 1.022, Maximum measured 178.628 %, Maximum response 100 %, Minimum measured 80.7 %, R squared 0.039).
Consider `Cc1cnccc1-c1cc(NC(=O)c2cc(F)cc3[nH]ncc23)cc2c1CNC2`, for which the EC50 was above 50 µM in assay [1] (Vero C1008) and above 25 µM in assay [2] (Vero C1008). For the same compound, the EC90 is above 50 µM in assay [1] (Vero C1008, Baseline response 0 %, Hill slope 2.277, Maximum measured 10.357 %, Maximum response 100 %, Minimum measured -2.491 %, P-gp concentration 500 nM, R squared 0.469, P-gp inhibitor CP100356) and above 25 µM in assay [2] (Vero C1008, Maximum measured 259.167 %, Minimum measured 80.59 %).
As for `Cc1cc(-c2cc(F)cc(C(=O)Nc3ccc4c(c3)CNC4)c2)[nH]n1`, the values for the EC50 in assay [1] (Vero C1008) and in assay [2] (Vero C1008) were 19.3 µM and above 50 µM, respectively. Also, the EC90 in assay [1] (Vero C1008, Baseline response 0 %, Hill slope 1.404, Maximum measured 64.496 %, Maximum response 100 %, Minimum measured 4.475 %, P-gp concentration 500 nM, R squared 0.907, P-gp inhibitor CP100356) was above 25 µM; in assay [2] (Vero C1008, Baseline response 0 %, Hill slope 1.641, Maximum measured 129.562 %, Maximum response 100 %, Minimum measured 66.397 %, R squared 0.205) it was above 50 µM.
In the case of `CC(C)n1cc2c(C(=O)Nc3ccc4c(c3)CNC4)cc(Cl)cc2n1`, the EC50 was 1.67 µM in assay [1] (Vero C1008) and above 12.5 µM in assay [2] (Vero C1008). Also, the EC90 was 1.93 µM in assay [1] (Vero C1008) and above 12.5 µM in assay [2] (Vero C1008, Maximum measured 192.332 %, Minimum measured 77.026 %).
As to `O=C(Nc1cc2c(c(-c3ccnnc3)c1)CNC2)c1cc(Cl)cc2[nH]ncc12`, the EC50 is above 50 µM in assay [1] (Vero C1008) and above 6.25 µM in assay [2] (Vero C1008). For the same compound, the EC90 in assay [1] (Vero C1008, Baseline response 0 %, Hill slope 0.648, Maximum measured 22.176 %, Maximum response 100 %, Minimum measured 1.861 %, P-gp concentration 500 nM, R squared 0.877, P-gp inhibitor CP100356) was above 50 µM; in assay [2] (Vero C1008, Baseline response 0 %, Hill slope 3.411, Maximum measured 174.98 %, Maximum response 100 %, Minimum measured 62.735 %, R squared 0.059), above 6.25 µM.

For orientation: EC50 means the concentration that produces a half-maximal response. For orientation: EC90 means the point of the concentration-response curve where the effect stands at 90%.

The values are drawn from ChEMBL document CHEMBL5661943, “ASAP - In vitro antiviral effect” (2024).
